Measured values as given in patent publication US10175228B2, “Method of using transmembrane channel-like protein 6 (TMC6) protein to identify substances affecting salty taste” (priority 2016, dated 2019).

Key:
[1] = tested on: chimeric TMC6 protein of mouse and Aotus nancymaae; assay: Calcium imaging of CHO-K1 cells expressing the mouse/Aotus nancymaae chimeric TMC6 gene; type: cell-based; conditions: stimulation with high-concentration NaCl solution for 60 sec, 21 cells
Text: The nucleotide sequence of the CDS of the chimeric TMC6 gene cloned into Mouse-Aotus nancymaae chimera TMC6 2A-YC260TM in pcDNA3.1(−) was confirmed to consist of an upstream part identical to positions 1 to 45 of the nucleotide sequence of mRNA of the mouse TMC6 gene (NM_145439) and a downstream part identical to positions 52 to 2421 of the nucleotide sequence of mRNA of the Aotus nancymaae TMC6 gene (XM 012453598) registered in NCBI by sequencing analysis. The chimeric TMC6 gene encodes a chimeric TMC6 protein consisting of the amino acid sequence of positions 1 to 15 of the mouse TMC6 protein (SEQ ID NO: 26) and the amino acid sequence of positions 18 to 807 of the Aotus nancymaae TMC6 protein (SEQ ID NO: 1). The nucleotide sequence of Mouse-Aotus nancymaae chimera TMC6 2A-YC260TM in pcDNA3.1(−) is shown as SEQ ID NO: 63. […]
CHO-K1 cells were transfected with Macaca mulatta TMC6-2A-YC260TM in pcDNA3.1(−), Pongo abelii TMC6-2A-YC260TM in pcDNA3.1(−), Mouse-Aotus nancymaae chimera TMC6 2A-YC260TM in pcDNA3.1(−), or YC2.60-pcDNA, to prepare TMC6-expressing cells (cells expressing the Macaca mulatta TMC6 gene, the Pongo abelii TMC6 gene, or the mouse/Aotus nancymaae chimeric TMC6 gene, in combination with the YC2.60 gene) and control cells (cells expressing the YC2.60 gene). The prepared cells were stimulated, and activation of the cells was measured. […]

[2] = tested on: control cells (CHO-K1 cells expressing YC2.60 gene); assay: Calcium imaging of control cells (CHO-K1 cells expressing YC2.60 gene only); type: cell-based, Chinese hamster; conditions: control cells without TMC6, stimulation with high-concentration NaCl solution
Experimental: CHO-K1 cells were transfected with TMC6-pcDNA3.1 or pcDNA3.1 in combination with YC2.60-pcDNA, to prepare TMC6-expressing cells (cells expressing the mouse TMC6 gene and the YC2.60 gene) and control cells (cells expressing the YC2.60 gene). The prepared cells were stimulated, and activation of the cells was measured. The procedure was as follows.
That is, first, CHO-K1 cells (ATCC) were inoculated into a culture dish having a diameter of 60 mm while adjusting the number of the cells to obtain 60% confluence, and cultured for 8 hr. As the medium, 5 mL of Ham's F-12K (Kaighn's) (Life Technologies) containing 10% fetal bovine serum (Life Technologies) was used. A 15 μL aliquot of FuGENE 6 (Promega) was added to 235 μL of Opti-MEM (Thermo Fisher Scientific), and incubated for 5 min at a room temperature. Then, 0.625 μg of TMC6-pcDNA3.1 and 2.5 μg of YC2.60-pcDNA were further added thereto, and incubated for 15 min at a room temperature. Then, the whole of the resultant mixture was dropped into the culture broth of the CHO-K1 cells, and the culture broth was mildly stirred. Then, the cells were further cultured for 18 hr under a condition of 5% CO2 at 37° C., to obtain the TMC6-expressing cells. Similarly, the control cells were obtained through transfection using pcDNA3.1 instead of TMC6-pcDNA3.1.
After the cultivation, the culture broth was removed. […]

## [Cl-].[Na+] [NaCl, sodium chloride]
[1]
  change of average YFP/CFP value (intracellular calcium concentration): increase
[2]
  change of YFP/CFP value (intracellular calcium concentration): not observed an increase
